Tests used:
Human Fibroblast BJ = assay: MTT cytotoxicity assay against BJ human fibroblast cells; format: cell-based; settings: 48 h, 1-30 µM, ± SD of three independent experiments
Procedure: (§1) Cytotoxicity against BJ human fibroblast cells and cytotoxicity against PC3, HeLa, MCF-7, and MDA-MB231 cancer cell lines were evaluated by following the procedure as described in the literature (Supplementary Materials). […]
(§2) The Biological Activity Assays Protocols
(§3) Cytotoxic activity of compounds was evaluated in 96-well flat-bottomed micro plates by using the standard MTT (3-[4, 5-dimethylthiazole-2-yl]-2, 5-diphenyl-tetrazolium bromide) colorimetric assay.
(§4) For this purpose, PC3 cells (Prostate Cancer) / BJ Human fibroblast cells / HeLa cells (Cervical Cancer) / MCF-7 and MDA-MB-231 breast cancer cell line were cultured in Dulbecco’s Modified Eagle Medium, supplemented with 5% of fetal bovine serum (FBS), 100 IU/ml of penicillin and 100 µg/ml of streptomycin in 75 cm2 flasks, and kept in 5% CO2 incubator at 37 °C. Exponentially growing cells were harvested, counted with haemocytometer and diluted with a particular medium. Cell culture with the concentration of 1x10^5 cells/ml was prepared and introduced (100 µL/well) into 96-well plates. After overnight incubation, medium was removed and 200 µL of fresh medium was added with different concentrations of compounds (1-30µM). After 48 hrs, 200 µL MTT (0.5 mg/ml) was added to each well and incubated further for 4 hrs. Subsequently, 100µL of DMSO was added to each well. The extent of MTT reduction to formazan within cells was calculated by measuring the absorbance at 570 nm, using a micro plate reader (Spectra Max plus, Molecular Devices, CA, USA). The cytotoxicity was recorded […]
(§5) (1 picture or pasted object on this page, not shown here) […]
(§6) as concentration causing 50% growth inhibition (IC50) for PC3 cells. The percent inhibition was calculated by using the following formula:
(§7) % inhibition = 100-((mean of O.D of test compound – mean of O.D of negative control)/ (mean of O.D of positive control – mean of O.D of negative control)*100).
(§8) The results (% inhibition) were processed by using Soft- Max Pro software (Molecular Device, USA).
(§9) Standard drug used in the MTT assay was doxorubicin. […]

Breast MCF-7 = assay: MTT anticancer assay, breast MCF-7 cells; format: cell-based; design: key to IC50, Breast MCF-7: NA means that the tested compound did not show anticancer activity at 30 µM; NS: Not soluble; settings: 1-30 µM, ± SD of three independent experiments; for IC50: Homo sapiens, MCF7, 48 h
Procedure: (§10) The antiproliferative activity against four cancer cell lines, including prostate PC3, cervical HeLa, and triple-negative breast cancer (MCF-7 and MDA-MB231) was evaluated by MTT assay, while standard drug doxorubicin was used as a reference for comparison (Table 1).
as §1, §2, §3, §4, §5, §6, §7, §8, §9

Cervical HeLa = assay: MTT anticancer assay, cervical HeLa cells; format: cell-based; settings: Homo sapiens, HeLa, 48 h, 1-30 µM, ± SD of three independent experiments
Procedure: as §10, §1, §2, §3, §4, §5, §6, §7, §8, §9

Breast MDA-MB231 = assay: MTT anticancer assay, breast MDA-MB231 cells; format: cell-based; design: key to IC50, Breast MDA-MB231: NA means that the tested compound did not show anticancer activity at 30 µM; NS: Not soluble; settings: 1-30 µM, ± SD of three independent experiments; for IC50: Homo sapiens, MDA-MB-231, 48 h
Procedure: as §10, §1, §2, §3, §4, §5, §6, §7, §8, §9

Prostate PC3 = assay: MTT anticancer assay, prostate PC3 cells; format: cell-based; settings: 1-30 µM, ± SD of three independent experiments; for IC50: Homo sapiens, PC-3, 48 h
Procedure: as §10, §1, §2, §3, §4, §5, §6, §7, §8, §9

| Structure (SMILES) | IC50 (Human Fibroblast BJ) | IC50 (Breast MCF-7) | IC50 (Cervical HeLa) | IC50 (Breast MDA-MB231) | IC50 (Prostate PC3) | melting point | IC50, Breast MCF-7 (Breast MCF-7; 48 h) | IC50, Breast MDA-MB231 (Breast MDA-MB231; 48 h) | IC50, Prostate PC3 (Prostate PC3; 48 h) |
| --- | --- | --- | --- | --- | --- | --- | --- | --- | --- |
| O=C1/C(=C/c2ccccc2)CCC[C@@]12[C@H](c1ccccc1)[C@H]1C[C@@H]3CCCC[C@@H]3N1[C@]21C(=O)Nc2ccccc21 [Compound 4a, (1. S,1′S,3′S,4a′S,8a′S,9a′R)-3-((E)-Benzylidene)-1′-phenyl-4a′,5′,6′,7′,8′,8a′,9′,9a′-octahydro-1′H-dispiro[cyclohexane-1,2′-pyrrolo[1,2-a]indole-3′,3″-indoline]-2,2″-dione] | > 30 µM | 25 ± 0.57 µM | 7.1 ± 0.2 µM | 19.5 ± 0.56 µM | 24.1 ± 1.1 µM | 70 to 71 °C |  |  |  |
| O=C1/C(=C/c2ccccc2)CCC[C@@]12[C@H](c1ccccc1)[C@H]1C[C@@H]3CCCC[C@@H]3N1[C@]21C(=O)Nc2cc(Cl)ccc21 [Compound 4b, (1. S,1′S,3′S,4a′S,8a′S,9a′R)-3-((E)-Benzylidene)-6″-chloro-1′-phenyl-4a′,5′,6′,7′,8′,8a′,9′,9a′-octahydro-1′H-dispiro[cyclohexane-1,2′-pyrrolo[1,2-a]indole-3′,3″-indoline]-2,2″-dione] | > 30 µM | 27.7 ± 0.59 µM | > 30 µM | 24.08 ± 0.02 µM | 3.7 ± 1 µM |  |  |  |  |
| O=C1/C(=C/c2ccccc2)CCC[C@@]12[C@H](c1ccccc1)[C@H]1C[C@@H]3CCCC[C@@H]3N1[C@]21C(=O)Nc2ccc(F)cc21 [Compound 4c, (1. S,1′S,3′S,4a′S,8a′S,9a′R)-3-((E)-Benzylidene)-5″-fluoro-1′-phenyl-4a′,5′,6′,7′,8′,8a′,9′,9a′-octahydro-1′H-dispiro[cyclohexane-1,2′-pyrrolo[1,2-a]indole-3′,3″-indoline]-2,2″-dione] | > 30 µM | 27.8 ± 1.02 µM | > 30 µM | 20.6 ± 2.16 µM | 17.9 ± 0.2 µM | 70 to 71 °C |  |  |  |
| O=C1/C(=C/c2ccccc2)CCC[C@@]12[C@H](c1ccccc1)[C@H]1C[C@@H]3CCCC[C@@H]3N1[C@]21C(=O)Nc2ccc([N+](=O)[O-])cc21 [Compound 4d, (1. S,1′S,3′S,4a′S,8a′S,9a′R)-3-((E)-Benzylidene)-5″-nitro-1′-phenyl-4a′,5′,6′,7′,8′,8a′,9′,9a′-octahydro-1′H-dispiro[cyclohexane-1,2′-pyrrolo[1,2-a]indole-3′,3″-indoline]-2,2″-dione] | > 30 µM | > 30 µM | > 30 µM | > 30 µM | 29.8 ± 0.1 µM | 111 to 122 °C |  |  |  |
| COc1ccc2c(c1)[C@]1(C(=O)N2)N2[C@H](C[C@@H]3CCCC[C@@H]32)[C@@H](c2ccccc2)[C@@]12CCC/C(=C\c1ccccc1)C2=O [Compound 4e, (1. S,1′S,3′S,4a′S,8a′S,9a′R)-3-((E)-Benzylidene)-5″-methoxy-1′-phenyl-4a′,5′,6′,7′,8′,8a′,9′,9a′-octahydro-1′H-dispiro[cyclohexane-1,2′-pyrrolo[1,2-a]indole-3′,3″-indoline]-2,2″-dione] | > 30 µM | > 30 µM | 26.5 ± 0.04 µM | > 30 µM | 19.6 ± 1.2 µM | 111 to 122 °C |  |  |  |
| O=C1/C(=C/c2ccc(Br)cc2)CCC[C@@]12[C@H](c1ccc(Br)cc1)[C@H]1C[C@@H]3CCCC[C@@H]3N1[C@]21C(=O)Nc2cc(Cl)ccc21 [Compound 4f, (1. S,1′S,3′S,4a′S,8a′S,9a′R)-3-((E)-4-Bromobenzylidene)-1′-(4-bromophenyl)-6″-chloro-4a′,5′,6′,7′,8′,8a′,9′,9a′-octahydro-1′H-dispiro[cyclohexane-1,2′-pyrrolo[1,2-a]indole-3′,3″-indoline]-2,2″-dione] | > 30 µM |  | > 30 µM |  | > 30 µM | 97 to 98 °C | NS ^c | NS | inactive |
